Results: PMC5673977, “Transport Deficiency Is the Molecular Basis of Candida albicans Resistance to Antifungal Oligopeptides” (Frontiers in Microbiology, 2017)
Where a SMILES comes first, the peptide text is derived from it. [ ]: non-standard residue; d: D form. Nva = CCC[C@H](N)C(=O)O

Key:
[1] = test system: peptidases present in cytoplasmic extracts obtained from NF1, NF2, NF3, LNF1, LNF2, LNF3, and SC 5314 cells; assay: Peptide cleavage rate in cell-free extract (Cd-ninhydrin); type: in vitro ADME, Candida albicans; details: pH 6.5, 30°C
Procedure: Yeast cells from the overnight culture in YNB-SG were harvested by centrifugation and washed with cold 25 mM potassium phosphate buffer (pH 6.5). Cells were then suspended in a minimal amount of the buffer and disrupted with the French press. The resulting suspension was centrifuged (35,000 ×g, 4°C, 45 min), and the supernatant was used as a cell-free extract for the determination of peptide cleavage rates.
The incubation mixtures, consisting of 10 mL of a 200 mM peptide solution in 50 mM potassium phosphate buffer (pH 6.5) and 2 mL of an appropriately diluted crude extract (final protein concentration, 0.1–0.5 mg mL^-1), were incubated at 30°C. At 5 min intervals, 2 mL aliquots were withdrawn and heated at 100°C for 3 min. The resulting suspensions were centrifuged to remove the protein precipitates and the concentration of free amino acids in the supernatant was determined by the Cd-ninhydrin procedure ([Doi et al., 1981]).

[2] = test system: C. albicans isolates NF1-3 and LNF1-3; assay: Initial peptide uptake rate by isolates resistant to F2/F3; type: cell-based, Candida albicans; details: all six isolates NF1-3, LNF1-3; Figure 4
Procedure: (§1) Yeast cells grown exponentially in the YNB-SG medium were harvested by centrifugation (3000 ×g, 5 min), washed with 50 mM potassium phosphate buffer (pH 5.0 or 6.5), and suspended in the same buffer containing 1% glucose, to a final cell density corresponding to A660 ≅ 1.0. The cell suspension was incubated at 30°C. After 10 min, an oligopeptide solution was added, to give a final concentration of 100 μM. At that moment and at 5 min intervals thereafter, 2 mL samples of the cell suspension were withdrawn, immediately filtered through the Whatman GF/A filters and the filtrates were used to determine the residual peptide concentration. Then, the 1 mL portions of the filtrates were taken and combined with 1.25 mL aliquots of a solution containing 4% Na2B4O7 × 10 H2O and 0.8 mg mL^-1 of 2,4,6-trinitrobenzenesulfonate. The reaction was carried out at 37°C for 30 min. The A420 values were measured and the peptide concentration was read from the appropriate standard curve. Data were plotted as nanomoles of an oligopeptide, taken up by 1 mg (dry weight) of cells versus time. The initial uptake velocities were determined from the slopes of the linear part of the curves, in the 0- to 10-min region.
It is therefore clear that the diminished sensitivity of all six isolates to F2 and F3 was due to the reduced uptake, most likely by permease(s) of the PTR system.

[3] = test system: C. albicans opt1–opt5Δ ptr2Δ ptr22Δ; assay: Initial peptide uptake rate; type: cell-based, Candida albicans; details: 50 mM potassium phosphate buffer (pH 5.0 or 6.5) + 1% glucose, 30°C, 100 μM peptide, TNBS A420, slope 0- to 10-min
Procedure: as §1

C. albicans opt2Δ opt3Δ = assay: Initial peptide uptake rate; type: cell-based, Candida albicans; details: 50 mM potassium phosphate buffer (pH 5.0 or 6.5) + 1% glucose, 30°C, 100 μM peptide, TNBS A420, slope 0- to 10-min
Procedure: as §1

C. albicans opt1–opt5Δ = assay: Initial peptide uptake rate; type: cell-based, Candida albicans; details: 50 mM potassium phosphate buffer (pH 5.0 or 6.5) + 1% glucose, 30°C, 100 μM peptide, TNBS A420, slope 0- to 10-min
Procedure: as §1

C. albicans SC5314 = assay: Initial peptide uptake rate; type: cell-based, Candida albicans; details: SC 5314; cells grown in YNB-SG; 50 mM potassium phosphate buffer (pH 5.0 or 6.5) + 1% glucose, 30°C, 100 μM peptide, residual peptide by TNBS A420, slope 0- to 10-min
Procedure: as §1

C. albicans ptr2Δ ptr22Δ = assay: Initial peptide uptake rate; type: cell-based, Candida albicans; details: 50 mM potassium phosphate buffer (pH 5.0 or 6.5) + 1% glucose, 30°C, 100 μM peptide, TNBS A420, slope 0- to 10-min
Procedure: as §1

C. albicans opt4Δ = assay: Initial peptide uptake rate; type: cell-based, Candida albicans; details: 50 mM potassium phosphate buffer (pH 5.0 or 6.5) + 1% glucose, 30°C, 100 μM peptide, TNBS A420, slope 0- to 10-min
Procedure: as §1

C. albicans opt5Δ = assay: Initial peptide uptake rate; type: cell-based, Candida albicans; details: 50 mM potassium phosphate buffer (pH 5.0 or 6.5) + 1% glucose, 30°C, 100 μM peptide, TNBS A420, slope 0- to 10-min
Procedure: as §1

C. albicans opt1Δ = assay: Initial peptide uptake rate; type: cell-based, Candida albicans; details: 50 mM potassium phosphate buffer (pH 5.0 or 6.5) + 1% glucose, 30°C, 100 μM peptide, TNBS A420, slope 0- to 10-min
Procedure: as §1

| Structure (SMILES) | Velocity of proteolytic cleavage relative to F6, F7, and F11 [1] | Initial uptake rate relative to wild type SC5314 cells [2] | Uptake rate ± SD [3] | Uptake rate ± SD (C. albicans opt2Δ opt3Δ) | Uptake rate ± SD (C. albicans opt1–opt5Δ) | Uptake rate ± SD (C. albicans SC5314) | Uptake rate ± SD (C. albicans ptr2Δ ptr22Δ) | Uptake rate ± SD (C. albicans opt4Δ) | Uptake rate ± SD (C. albicans opt5Δ) | Uptake rate ± SD (C. albicans opt1Δ) |
| --- | --- | --- | --- | --- | --- | --- | --- | --- | --- | --- |
| CCC[C@H](NC(=O)[C@@H](N)CCCCN)C(=O)N[C@@H](Cc1ccccc1)C(=O)N[C@@H](CCSC)C(=O)N[C@@H](CC(=O)O)C(=O)N1CCC[C@H]1C(=O)O [Peptide F3, Lys-Nva-FMDP] (H-K[Nva]FMDP-OH) | two to three times higher | lower | <0.1 nmol min^-1 (mg dry weight)^-1 | 3.23 ± 0.19 nmol min^-1 (mg dry weight)^-1 | 2.98 ± 0.18 nmol min^-1 (mg dry weight)^-1 | 4.32 ± 0.14 nmol min^-1 (mg dry weight)^-1 | 0.11 ± 0.04 nmol min^-1 (mg dry weight)^-1 | 4.12 ± 0.15 nmol min^-1 (mg dry weight)^-1 | 4.19 ± 0.16 nmol min^-1 (mg dry weight)^-1 | 4.08 ± 0.14 nmol min^-1 (mg dry weight)^-1 |
| CCC[C@H](N)C(=O)N[C@@H](Cc1ccccc1)C(=O)N[C@@H](CCSC)C(=O)N[C@@H](CC(=O)O)C(=O)N1CCC[C@H]1C(=O)O [Peptide F2, Nva-FMDP] (H-[Nva]FMDP-OH) | two to three times higher | remarkably lower | <0.1 nmol min^-1 (mg dry weight)^-1 | 4.80 ± 0.15 nmol min^-1 (mg dry weight)^-1 | 4.05 ± 0.18 nmol min^-1 (mg dry weight)^-1 | 4.83 ± 0.11 nmol min^-1 (mg dry weight)^-1 | <0.1 nmol min^-1 (mg dry weight)^-1 | 4.86 ± 0.14 nmol min^-1 (mg dry weight)^-1 | 4.78 ± 0.11 nmol min^-1 (mg dry weight)^-1 | 4.75 ± 0.09 nmol min^-1 (mg dry weight)^-1 |
